Data reported in patent publication US6121241A, “Anticoagulant peptide aldehyde derivatives” (Gyogyszerkutato Intezet Kft., priority 1996, dated 2000).
Read-outs that look alike come from different tables or passages of the source.

What was measured:
[1] = system: citrate plasma coagulation (APTT); assay: Activated partial thromboplastin time (APTT) plasma clotting test; assay type: biochemical
Method: (§1) Anticoagutant activity (i.e. inhibition of the proteolytic reactions in the process) is measured by anticoagulant tests, e.g. by the thrombin time (TT), activated partial thromboplastin time (APTT) and prothrombin time (PT) tests [E. J. W. Bovie et al; Mayo Clinic Laboratory Manual of Hemostasis; W. B. Sanuders Co., Philadelphia (1971)]. Plasma, inhibited in spontaneous coagulation, e.g. citrate-plasma, is made to coagulate and the required coagulation time is measured. Upon the action of anticoagulants the coagulation time is prolonged proportionally to the inhibition of the reaction(s) in the process. The anticoagulant effect can be characterized by the substance concentration required to double the coagulation time compared to the control (IC50). The effect of anticoagulants on individual coagulant proteases is measured by the amidolytic method [R. Lottenberg et al., Methods in Enzymol. 80, 341 (1981); G. Cleason, Blood Coagulation and Fibrinolysis 5, 411 (1994)]. The isolated active factor (e.g. thrombin, fXa) and its chromogen or fluorogen peptide-amide substrate are reacted in the presence or absence of the inhibitor, resp. The enzyme inhibiting action is characterized by the inhibitory constant (IC50) measured during amidolysis.
In the TT test coagulation is initiated by the thrombin added to the citrate plasma. In the system 22 pmol/mL of thrombin is functioning and in the presence of plasma components its inhibition can be measured on the fibrinogen (one of the natural substrates of thrombin) present In the APTT and PT tests the full coagulation process is made to proceed. Depending on the activator fX is activated by the extrinsic or intrinsic pathway. The generated fXa activates prothrombin to thrombin which, in turn, triggers plasma coagulation. In the test the coagulation time is prolonged if the enzymes or one of them is inhibited by the inhibitor. In the APTT and PT tests at most 40 pmole/ml Xa is generated (this is the full amount of factor X present in both systems) while 150 pmole/ml (APTT) and 350 pmole/ml (PT) are generated from thrombin [B Kaiser et al., Thromb. Res. 65, 157 (1992)].
The in vitro anticoagulant effect of the compounds of general formula (I) was measured by the prothrombin time (PT), activated partial thromboplastin time (APTT) and thrombin time (TT) tests [D. Bagdy et at., Thromb. Haemost. 67, 325 (1992)]. The Xa-factor-inhibiting effect of the compounds was also determined by using the Bz-Ile-Glu-Gly-Arg-pNA chromogen substrate (see method M6).

[2] = system: whole blood clotting time (WBCT); assay: Ex vivo whole blood clotting time (WBCT) in rabbits after p.o. dosing; parameters: species or system New Zealand white rabbits; settings: p.o. 5 mg/kg
Method: The anticoagulant and platelet aggregation inhibiting effect of the compounds of general formula (I) was studied In New Zealand white rabbits ex vivo according to D. Bagdy et al [Thromb. Haemost 67. 357 (1992). The compounds were dissolved in buffered isotonic saline solution and administered i.v. (0,04-5.0 mg/kg) or by infusion (0.25-5.0 mg/kg/h) or subcutaneously (0.5-6.0 mg/kg) or p.o. (2.5-20 mg/kg). The effect of the compounds was detectable already within 30 minutes following p.o. administration, peak values were attained after 60-180 minutes and the therapeutic level was maintained dose-dependently for 3→6 hours.
The in vivo effect of D-cHga Pro-Arg-H (1) is presented in detail in Tables 5 and 6. The corresponding values of C1 are listed as controls. The compound was administered p.o. in doses of 5 mg/kg. The blood samples drawn from the caudal vein in every 30-60 minutes were analyzed. The whole blood clotting time (WBCT) and the inhibition of thrombin-induced blood platelet aggregation (PAI) were determined. The activated partial thromboplastin time (APTT) and the thrombin time (TT) in the citrate plasma obtained from the blood sample were also measured. The APTT and TT values are compiled in Table 5 and the WBCT and PAI values in Table 6.

[3] = target: T1, plasma clot entrapped thrombin (Homo sapiens, UniProt P00734); assay: Inhibition of thrombin entrapped in plasma clot (methods M1, M3); assay type: biochemical; settings: platelet-rich human plasma clot; Tos-Gly-Pro-Arg-pNA substrate
T1 construct: Here prothrombin is converted to thrombin; from tissue; host or cells: clot of recalcified platelet-rich human citrate plasma
Method: The plasma clot was obtained by the recalcification of platelet-rich human citrate plasma and fibrin gel by the coagulation of human fibrinogen with human thrombin Z-D-Arg-Gly-Arg-pNA and Tos Gly-Pro-Arg-pNA were used as substrates for measuring the activity of factor Xa and thrombin (methods M1-M5).
Preparation of Plasma Clot
a) Platelet-rich plasma (PRP) is prepared by centrifuging a 9:1 mixture of human blood and 3.8% aqueous sodium citrate solution (1/2) for 5 minutes at 240×g.
b) 200 μL of PRP are placed in each reaction vessel, 80 μL of 40 mM calcium chloride solution is added and the mixture is left to stand at room temperature for one hour. The plasma clot formed is rinsed mildly with 6×2 ml of 0.9% sodium chloride solution followed by 5 minute sedimentation to remove the dissolved enzymes (factor Xa and thrombin). The thrombin content of the washings is assayed as follows.
c) To 400 μL of washing liquid 100 μL of 1 mM Tos-Gly-Pro-Arg-pNA substrate solution is added and the mixture is incubated for 30 minutes at 37° C., then the reaction is stopped by the addition of 100 μL of 50% acetic acid. 150 μL portions of this mixture are transferred into the wells of the 96-well microtiter plate and the extinction is measured at 405 nm (ELISA READER SLT Laborinstrument GmbH, Austria). When the washing is successful, the extinction is less than 5% of the control
Assay of the Inhibition of Thrombin Entrapped in Plasma Clot
a) Peptide inhibitor solutions are prepared by the process described in Method M2, point a).
b) After draining the washing liquid, 400 μL of the peptide solution (3 parallel samples for each concentration) and 400 μL of buffer, serving as control, are placed on the clot (Method M1) and the mixture is incubated for 5 minutes at 37° C. Thereafter 100 μL of […] Tos-Gly-Pro-Arg-pNA substrate solution is added and incubation at 37° C. is continued for further 30 minutes, then the reaction is stopped by the addition of 100 μL of 50% acetic acid. The operation is continued as described in Method M2, point c).

thrombin = target: T2, thrombin (Homo sapiens, UniProt P00734); assay: Inhibition of the amidolytic effect of thrombin on Tos-Gly-Pro-Arg-pNA; assay type: biochemical; settings: Tos-Gly-Pro-Arg-pNA substrate
T2 construct: The isolated active factor (e.g. thrombin, fXa) and its chromogen or fluorogen peptide-amide substrate are reacted
Method: as §1
In the case of D-MePhe-Pro-Arg-H (C1) the concentration doubling the clotting time in the TT, APTT and PT tests amounted to 87, 622 and 2915 nM, resp.

Compound | IC50 ([1]; read-out: concentration doubling the clotting time in the APTT test) | WBCT relative clotting time ([2]; 0 min) | WBCT relative clotting time ([2]; 30 min) | WBCT relative clotting time ([2]; 45 min) | WBCT relative clotting time ([2]; 60 min) | WBCT relative clotting time ([2]; 90 min) | WBCT relative clotting time ([2]; 120 min) | WBCT relative clotting time ([2]; 180 min) | WBCT relative clotting time ([2]; 240 min) | IC50 [3] | IC50 (thrombin) | IC50 ([1]; Table 2, concentration doubling clotting time, read-out: A: IC50, APTT)
CN[C@H](Cc1ccccc1)C(=O)N1CCC[C@H]1C(=O)N[C@H](C=O)CCCNC(=N)N [Compound C1, D-MePhe-Pro-Arg-H] | 622 nM | 1.0 | 1.07 ± 0.13 | 1.26 ± 0.07 | 1.55 ± 0.17 | 1.61 ± 0.34 | 1.45 ± 0.21 | 1.44 ± 0.08 | 1.22 ± 0.08 | 380 nM | 2 nM | –
N=C(N)NCCC[C@@H](C=O)NC(=O)[C@H]1CCCN1C(=O)C(O)C1CCCCCC1.N=C(N)NCCC[C@@H](C=O)NC(=O)[C@H]1CCCN1C(=O)C(O)C1CCCCCC1.O=S(=O)(O)O (stereo partly drawn) [Compound 1, D-2-Cycloheptyl-2-hydroxyacetyl-L-prolyl-L-arginine aldehyde hemisulfate] | – | 1.0 | 1.80 ± 0.36 | 2.03 ± 0.35 | 1.98 ± 0.30 | 1.78 ± 0.26 | 1.52 ± 0.13 | 1.29 ± 0.07 | 1.13 ± 0.04 | 520 nM | – | 370 nM
